According to patent publication US8097624B2, “Cycloalkyl derivatives of 3-hydroxy-4-pyridinones” (Apotex Inc., priority 2006, dated 2012):

Assays:
[1] = Metal complexation constants, Zn system; type: binding
Experimental: (§1) In a typical experiment, the sample solution was prepared by the following method: Apo6619 (31.91 mg) was weighed into a 25-ml beaker followed by the addition of 0.1 M NaCl (18.9 ml). The mixture was sonicated for 10 minutes to give a clear colorless solution. Aluminum stock solution (atomic absorption standard, Aldrich, 971 μl, 3.59×10^−5 mole) was pipetted into the solution followed by the addition of 1.000 N NaOH (229 μl) to give pH 8.56. The molar ratio between the total Aluminum and the total Apo6619 was 1:4. For M^2+ metals, a molar ratio of 1:3 was used. Nitrogen was allowed to bubble through the solution. The mixture was allowed to equilibrate at 22° C. for 2 hours. 1.000 N Hydrochloric acid (264 μl) was then added to the solution to give pH 2.20. The solution was allowed to equilibrate at 22° C. for 1 hour.
(§2) The solution was titrated against 1.000 N NaOH at 22° C. to reach pH 11.0. For each addition of base, the solution was allowed to equilibrate until a constant pH reading was reached. The volume of the base added and the pH reading were then recorded for each measurement. 93 measurements were used in the experiment.
(§3) The data set of pH vs. base volume was analyzed using Hyperquad 2000. Given the model: L^−+H^+ ? LH (pKa1), LH+H^+ ? LH2^+ (pKa2), Al^3++L^− ? ^AlL^2+ (K1), AlL^2++L^− ? AlL2^+ (K2), AlL2^++L^− ? AlL3 (K3), and β3=K1K2K3, the stepwise formation constants for Al-Apo6619 system were optimized as log K1=12.6(2); log K2=9.2(1); log K3=8.4(1); log β3=30.2(2).
(§4) pM^n+ is defined as −log [M(H2O)m]^n+ at physiological conditions, i.e.: pH 7.4, a ligand concentration of 10 μM, and a metal concentration of 1 μM.
(§5) To calculate pM^n+ for a MLn system, βn and pKa values are needed (βn are the formation constants for M^n++n L^− ? MLn; pKa are the equilibrium constants for L^−+n H^+ ? LHn^(n−1)+). The pM^n+ can be calculated by using Hyss software (Hyperquad Stimulation and Speciation software: HYSS2© 2000 Protonic Sofware).

[2] = Metal complexation constants, Cu system; type: binding
Experimental: as §1, §2, §3, §4, §5

[3] = Metal complexation constants, Ca system; type: binding
Experimental: as §1, §2, §3, §4, §5

[4] = Metal complexation constants, Mn system; type: binding
Experimental: as §1, §2, §3, §4, §5

[5] = Metal complexation constants, Mg system; type: binding
Experimental: as §1, §2, §3, §4, §5

[6] = Metal complexation constants, Al system (potentiometric titration; pM by Hyss); type: binding; conditions: pH 7.4, ligand 10 μM, metal 1 μM
Experimental: as §1, with “1.000 N Hydrochloric acid (264 μl) was then added to the solution to give pH 2.20. The solution was allowed to equilibrate at 22° C. for 1 hour.” left out
The solution was titrated against 1.000 N NaOH at 22° C. to reach pH 11.0. For each addition of base, the solution was allowed to equilibrate until a constant pH reading was reached. The volume of the base added and the pH reading were then recorded for each measurement. […]
The data set of pH vs. base volume was analyzed using Hyperquad 2000. […]
as §5

[7] = Drug Metab. Dispo. 1992; cited from earlier work
[8] = pH 7.4, ligand 10 μM, metal 1 μM

**Q.** What does the source list for `CNC(=O)c1c(O)c(=O)cc(C)n1C1CC1` [Apo6619, 1-Cyclopropyl-3-hydroxy-6-methyl-4-oxo-1,4-dihydro-pyridine-2-carboxylic Acid Methylamide]?
**A.** log K1 Zn(II) ([1]; log scale): 6.3; log K2 Zn(II) ([1]; log scale): 5.8; log β2 Zn(II) ([1]; log scale): 12.1; PM Zn(II) [1, 8]: 6.4; log K1 Cu(II) ([2]; log scale): 8.9; log K2 Cu(II) ([2]; log scale): 7.7; log β2 Cu(II) ([2]; log scale): 16.6; PM Cu(II) [2, 8]: 10; log K1 Ca(II) ([3]; log scale): 3; log K2 Ca(II) ([3]; log scale): 2.1; log β2 Ca(II) ([3]; log scale): 5.1; PM Ca(II) [3, 8]: 6.0; log K1 Mn(II) ([4]; log scale): 5.1; log K2 Mn(II) ([4]; log scale): 4.3; log β2 Mn(II) ([4]; log scale): 9.4; PM Mn(II) [4, 8]: 6.0; log K1 Mg(II) ([5]; log scale): 4.1; log K2 Mg(II) ([5]; log scale): 3.2; log β2 Mg(II) ([5]; log scale): 7.3; PM Mg(II) [5, 8]: 6.0; PM Al(III) [6]: 13.9

**Q.** With `Cc1c(O)c(=O)ccn1C` [deferiprone, 1,2-dimethyl-3-hydroxy-4-pyridinone, reference compound] as the molecule, how does the “administered dose recovered in the urine as the non-chelating O-glucuronide” value [7] read?
**A.** more than 85%
